Reference: paper PMC9249579, “Strawberry fruit FanCXE1 carboxylesterase is involved in the catabolism of volatile esters during the ripening process” (Horticulture Research, 2022)

Tested on: T1, FanCXE1
T1 construct: full-length, 981 bp ORF (326 residues from ORF length), 37 kDa; N-terminal GST fusion (pGEX-4T-1), tag kept, 64 kDa; E. coli, semipurified on GST-sepharose; Gly-82-Gly-83 oxyanion hole
Assay: colorimetric naphthol release (DBLS reagent, […] nm)
Type: biochemical, Fragaria x ananassa
Settings: optimum pH (7-7.5) and temperature (25-30°C), 20 min; semipurified GST fusion

Km [µM] | SMILES
678 ± 170 | CC(=O)Oc1cccc2ccccc12 [α-Naphthyl acetate]
1580 ± 190 | CCCC(=O)Oc1cccc2ccccc12 [α-Naphthyl butyrate]
572 ± 250 | CCCCCC(=O)Oc1ccc2ccccc2c1 [β-Naphthyl hexanoate]
